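How tested: cells in 96-well plates exposed to compound for 48 hours at five concentrations. Definition used: TGI = concentration required for complete inhibition of growth.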
Tests used:
Assay in all cases: DTP human tumour cell line panel, 48 h
[1] = tested on: HT29 colon
[2] = tested on: A549 NSCLC
[3] = tested on: DU-145 prostate
[4] = tested on: OVCAR-5 ovarian
[5] = tested on: ACHN renal
[6] = tested on: RPMI-8226 leukemia
[7] = tested on: SNB-75 CNS
[8] = tested on: EKVX NSCLC
[9] = tested on: LOX IMVI melanoma
[10] = tested on: SK-OV-3 ovarian
[11] = tested on: NCI/ADR-RES ovarian
[12] = tested on: CAKI-1 renal

| Structure (SMILES) | TGI [1] | TGI [2] | TGI [3] | TGI [4] | TGI [5] | TGI [6] | TGI [7] | TGI [8] | TGI [9] | TGI [10] | TGI [11] | TGI [12] |
| --- | --- | --- | --- | --- | --- | --- | --- | --- | --- | --- | --- | --- |
| COC(=O)c1cc2c(c3c1CC(Cc1ccccc1)C3=O)CCC2 (stereo not given) | > 100 µM | > 100 µM | > 100 µM | > 100 µM | > 100 µM | > 100 µM | > 100 µM | > 100 µM | > 100 µM | > 100 µM | > 100 µM |  |
| O=[N+]([O-])/C(C(Cl)=C(Cl)Cl)=C(/Cl)SCc1ccccc1 | 27.9 µM | 32.7 µM | 32.5 µM | 17.5 µM | 9.06 µM |  | 24.9 µM | 40.1 µM | 23.4 µM | 35.6 µM | 3.62 µM | 12.5 µM |
| CCCCc1ccc(-n2sc3ncc(C)cc3c2=O)cc1 |  | 78.9 µM | > 100 µM | 57.6 µM | > 100 µM | 99 µM | > 100 µM | 46.9 µM | 72.3 µM | > 100 µM | 72 µM |  |
| O=C1CSC2(CC(/C=C/c3cccc([N+](=O)[O-])c3)=NN2c2cccc(S(=O)(=O)O)c2)N1c1nc2ccccc2s1 (stereo not given) | > 100 µM | 69.2 µM | 40.6 µM | 52.1 µM | 94.6 µM | 39.2 µM | 40.7 µM | > 100 µM | 29.1 µM |  | 70.1 µM | > 100 µM |
| Cc1ccc2nc(N/N=C/c3sccc3C)cc(C)c2c1 | > 100 µM | > 100 µM | > 100 µM | > 100 µM | > 100 µM |  | > 100 µM | > 100 µM | > 100 µM | > 100 µM | > 100 µM | > 100 µM |
| CC1(C)CC[C@]2(C)CC[C@]3(C)C(=CC[C@@H]4[C@@]5(C)CCC(=O)C(C)(C)[C@@H]5[C@H](O)C[C@]43C)[C@@H]2C1 | 31.8 µM | 54.3 µM | 34.4 µM | 30.7 µM | 30.6 µM | 53.2 µM |  | 32.4 µM | 32.8 µM | 31.7 µM | 38.6 µM | 33.7 µM |
| CC1(C)OCC([C@H]2O[C@@H](CC(=S)NCCCCCCCCCCCCNC(=S)C[C@H]3O[C@@H](C4COC(C)(C)O4)[C@H]4OC(C)(C)O[C@H]43)[C@H]3OC(C)(C)O[C@H]32)O1 (stereo not given in full) | > 100 µM | > 100 µM | > 100 µM | > 100 µM | > 100 µM | 68.8 µM | > 100 µM | > 100 µM | > 100 µM |  | 94.2 µM | > 100 µM |
| O=C1C(Cl)C2(CC(/C=C/c3ccccc3)=NN2c2cccc(S(=O)(=O)O)c2)N1c1nc2ccccc2s1 (stereo not given) | 37.2 µM | 30.2 µM |  | 35.5 µM | 30.9 µM | 33.8 µM | 30.3 µM | 41 µM | 13 µM |  | > 100 µM | 22.6 µM |
| OCCN(CCO)c1ncnc2nc[nH]c12 | > 100 µM | > 100 µM | > 100 µM | > 100 µM | > 100 µM | > 100 µM |  | > 100 µM | > 100 µM | > 100 µM | > 100 µM | > 100 µM |
| CC1=NN(c2nc(N)nc(/C(C#N)=C\c3csc([N+](=O)[O-])c3)n2)C(C)(C)C1 | > 100 µM |  | > 100 µM | > 100 µM | > 100 µM | > 100 µM |  | 90.1 µM | > 100 µM | > 100 µM | 70.3 µM | > 100 µM |
| CN(C)C(=NCc1ccccc1)NC#N | > 100 µM | > 100 µM |  |  | > 100 µM |  |  | > 100 µM | > 100 µM | > 100 µM |  | > 100 µM |
| O=[N+]([O-])c1cccc2nc3ccccc3c(NCCCNc3c4ccccc4nc4cccc([N+](=O)[O-])c34)c12 | < 0.01 µM | 0.166 µM |  |  | 0.0135 µM |  | 0.277 µM | 0.0975 µM | > 100 µM | 1.59 µM | 1.19 µM | 0.118 µM |
| C[C@]12C[C@@H](OC(=O)[C@]1(C)O)[C@@H]([C@]1(O)CC[C@H]3[C@@H]4C[C@H]5O[C@]56C[C@H]5O[C@H]5C(=O)[C@]6(C)[C@H]4CC[C@@]31C)C2 | > 50 µM | > 50 µM | > 50 µM | > 50 µM | > 50 µM | > 50 µM | > 50 µM | > 50 µM |  | > 50 µM | > 50 µM | > 50 µM |
| C/C(=C\CBr)CCC(Br)C(C)(C)Cl (stereo not given) | > 100 µM | > 100 µM |  | > 100 µM | > 100 µM | > 100 µM | > 100 µM |  | > 100 µM | > 100 µM |  | > 100 µM |
| CC(C)(C)C1=CC(C)(n2[nH]c(=O)n(-c3ccccc3)c2=O)C=C(C(C)(C)C)C1=O | > 100 µM | > 100 µM | > 100 µM |  | > 100 µM | > 100 µM | > 100 µM |  | > 100 µM | > 100 µM | > 100 µM | > 100 µM |
| Clc1cc(Cl)cc(N=C/C=C/Nc2cc(Cl)cc(Cl)c2)c1 | 28.5 µM | 43.1 µM | 44.3 µM | 51.9 µM | 44.7 µM | 76.9 µM | 39.3 µM | 26.9 µM |  | 89 µM | 34.6 µM | 38.2 µM |
| CCc1c(C)c(C#N)c(=S)n(C2OC(COC(C)=O)C(OC(C)=O)C(OC(C)=O)C2OC(C)=O)c1-c1ccccc1 (stereo not given) | > 31.6 µM | > 31.6 µM | > 31.6 µM | > 31.6 µM | > 31.6 µM | > 100 µM |  | > 100 µM | > 31.6 µM |  | > 31.6 µM | > 100 µM |
| CC1=NC(=Cc2ccccc2O)C(=O)N1n1c(-c2ccccc2)nc2ccccc2c1=O | > 100 µM | > 100 µM | > 100 µM | > 100 µM | > 100 µM | > 100 µM | > 100 µM | > 100 µM | > 100 µM | > 100 µM | 93.5 µM |  |
| [O-]c1c2cc(-[n+]3c(-c4ccccc4)cc(-c4ccccc4)cc3-c3ccccc3)cc1COCCOCCOCCOCCOC2 | > 100 µM | > 100 µM |  | > 100 µM | > 100 µM |  | > 100 µM | > 100 µM | > 100 µM | > 100 µM |  | > 100 µM |
| CCOC(=O)N1N=C(/C(C)=N/OC)C(C)S1=O (stereo not given) | > 100 µM | > 100 µM | > 100 µM | > 100 µM | > 100 µM | > 100 µM | > 100 µM | > 100 µM |  | > 100 µM | > 100 µM | > 100 µM |

Source: PubChem BioAssay (NCI)
